The source made the active and inactive calls. No cut-off for these calls is given here.
What was measured:
[1] = target: T1, Mu-type opioid receptor (Homo sapiens, UniProt P35372); assay: Agonist activity at human mu opioid receptor expressed in CHO-K1 cells assessed as inhibition of forskolin-stimulated cAMP accumulation by HitHunter assay based luminescence analysis; type: functional, cell-based
[2] = target: T2, Kappa-type opioid receptor (Homo sapiens, UniProt P41145); assay: Agonist activity at human kappa opioid receptor expressed in CHO-K1 cells assessed as inhibition of forskolin-stimulated cAMP accumulation by HitHunter assay based luminescence analysis relative to control; type: functional, cell-based; conditions: filed as agonist
[3] = target: T1, Mu-type opioid receptor; assay: Agonist activity at human mu opioid receptor expressed in CHO-K1 cells assessed as inhibition of forskolin-stimulated cAMP accumulation by HitHunter assay based luminescence analysis relative to control; type: functional, cell-based
[4] = target: Delta-type opioid receptor (Homo sapiens) (UniProt P41143); assay: Agonist activity at human delta opioid receptor expressed in CHO-K1 cells assessed as inhibition of forskolin-stimulated cAMP accumulation at <1 uM by HitHunter assay based luminescence analysis; type: functional, cell-based
[5] = target: T2, Kappa-type opioid receptor; assay: Agonist activity at human kappa opioid receptor expressed in CHO-K1 cells assessed as inhibition of forskolin-stimulated cAMP accumulation by HitHunter assay based luminescence analysis; type: functional, cell-based
[6] = species on record: Homo sapiens; assay: Selectivity index, ratio of EC50 for agonist activity at human mu opioid receptor expressed in CHO-K1 cells to EC50 for agonist activity at human kappa opioid receptor expressed in CHO-K1 cells; type: cell-based
[7] = target: T3, Alpha-1A adrenergic receptor (Homo sapiens, UniProt P35348); assay: Binding affinity to alpha1A adrenergic receptor (unknown origin) by radioligand displacement assay
T3 sequence (P35348 whole entry): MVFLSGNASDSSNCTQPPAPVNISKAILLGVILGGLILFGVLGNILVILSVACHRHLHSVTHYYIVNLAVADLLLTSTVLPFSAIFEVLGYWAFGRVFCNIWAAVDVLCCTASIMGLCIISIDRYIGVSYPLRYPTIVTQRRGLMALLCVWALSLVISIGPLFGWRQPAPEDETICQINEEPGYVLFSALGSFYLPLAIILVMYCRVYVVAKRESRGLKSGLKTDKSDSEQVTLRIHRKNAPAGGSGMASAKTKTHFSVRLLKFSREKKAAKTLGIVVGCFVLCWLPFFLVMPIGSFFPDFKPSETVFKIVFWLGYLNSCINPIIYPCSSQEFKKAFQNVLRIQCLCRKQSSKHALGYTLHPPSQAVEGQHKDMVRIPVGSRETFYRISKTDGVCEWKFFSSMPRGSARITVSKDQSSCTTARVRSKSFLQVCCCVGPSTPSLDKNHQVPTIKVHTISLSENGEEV

[8] = target: T4, 5-hydroxytryptamine receptor 3A (Homo sapiens, UniProt P46098); assay: Binding affinity to 5HT3 receptor (unknown origin) by radioligand displacement assay
T4 sequence (P46098 whole entry): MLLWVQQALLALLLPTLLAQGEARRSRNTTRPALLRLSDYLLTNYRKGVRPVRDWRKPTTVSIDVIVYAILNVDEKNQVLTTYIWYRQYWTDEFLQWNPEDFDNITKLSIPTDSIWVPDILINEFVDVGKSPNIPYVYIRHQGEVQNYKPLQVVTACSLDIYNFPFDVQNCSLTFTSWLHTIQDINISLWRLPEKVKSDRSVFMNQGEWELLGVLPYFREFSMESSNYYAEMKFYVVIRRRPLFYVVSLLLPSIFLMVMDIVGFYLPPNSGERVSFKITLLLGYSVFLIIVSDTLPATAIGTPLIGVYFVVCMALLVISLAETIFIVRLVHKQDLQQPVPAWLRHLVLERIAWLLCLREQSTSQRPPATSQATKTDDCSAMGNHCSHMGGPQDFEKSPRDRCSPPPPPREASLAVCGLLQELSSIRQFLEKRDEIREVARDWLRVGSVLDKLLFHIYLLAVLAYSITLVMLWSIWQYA

[9] = target: T5, Alpha-1B adrenergic receptor (Homo sapiens, UniProt P35368); assay: Binding affinity to alpha1B adrenergic receptor (unknown origin) by radioligand displacement assay
T5 sequence (P35368 whole entry): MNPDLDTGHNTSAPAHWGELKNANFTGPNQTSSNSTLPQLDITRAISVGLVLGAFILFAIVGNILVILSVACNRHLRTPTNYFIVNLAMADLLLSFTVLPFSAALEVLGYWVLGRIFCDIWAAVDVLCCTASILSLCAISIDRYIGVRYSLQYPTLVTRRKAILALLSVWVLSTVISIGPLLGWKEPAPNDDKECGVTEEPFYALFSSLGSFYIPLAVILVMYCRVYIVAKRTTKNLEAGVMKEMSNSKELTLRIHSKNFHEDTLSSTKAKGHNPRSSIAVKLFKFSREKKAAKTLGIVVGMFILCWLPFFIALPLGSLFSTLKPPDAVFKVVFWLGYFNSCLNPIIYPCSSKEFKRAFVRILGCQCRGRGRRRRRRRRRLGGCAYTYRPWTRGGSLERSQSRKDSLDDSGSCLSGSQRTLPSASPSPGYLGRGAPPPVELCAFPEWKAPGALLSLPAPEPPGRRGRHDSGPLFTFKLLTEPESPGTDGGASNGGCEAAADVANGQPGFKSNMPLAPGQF

[10] = target: T6, Alpha-2A adrenergic receptor (Homo sapiens, UniProt P08913); assay: Binding affinity to alpha2A adrenergic receptor (unknown origin) by radioligand displacement assay
T6 sequence (P08913 whole entry): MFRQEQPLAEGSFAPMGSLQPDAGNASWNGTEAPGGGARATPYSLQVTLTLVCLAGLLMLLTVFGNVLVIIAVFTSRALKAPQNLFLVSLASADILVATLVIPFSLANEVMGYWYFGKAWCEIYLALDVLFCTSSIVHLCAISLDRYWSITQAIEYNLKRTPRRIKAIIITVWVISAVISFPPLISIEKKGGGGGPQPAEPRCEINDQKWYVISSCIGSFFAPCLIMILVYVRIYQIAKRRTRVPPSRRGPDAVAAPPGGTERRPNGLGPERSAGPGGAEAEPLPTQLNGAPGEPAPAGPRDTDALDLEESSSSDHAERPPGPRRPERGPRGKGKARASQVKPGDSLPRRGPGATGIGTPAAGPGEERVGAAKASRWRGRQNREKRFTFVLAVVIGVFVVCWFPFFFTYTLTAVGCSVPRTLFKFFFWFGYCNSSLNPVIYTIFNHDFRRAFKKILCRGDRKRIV

[11] = target: T7, Alpha-2B adrenergic receptor (Homo sapiens, UniProt P18089); assay: Binding affinity to alpha2B adrenergic receptor (unknown origin) by radioligand displacement assay
T7 sequence (P18089 whole entry): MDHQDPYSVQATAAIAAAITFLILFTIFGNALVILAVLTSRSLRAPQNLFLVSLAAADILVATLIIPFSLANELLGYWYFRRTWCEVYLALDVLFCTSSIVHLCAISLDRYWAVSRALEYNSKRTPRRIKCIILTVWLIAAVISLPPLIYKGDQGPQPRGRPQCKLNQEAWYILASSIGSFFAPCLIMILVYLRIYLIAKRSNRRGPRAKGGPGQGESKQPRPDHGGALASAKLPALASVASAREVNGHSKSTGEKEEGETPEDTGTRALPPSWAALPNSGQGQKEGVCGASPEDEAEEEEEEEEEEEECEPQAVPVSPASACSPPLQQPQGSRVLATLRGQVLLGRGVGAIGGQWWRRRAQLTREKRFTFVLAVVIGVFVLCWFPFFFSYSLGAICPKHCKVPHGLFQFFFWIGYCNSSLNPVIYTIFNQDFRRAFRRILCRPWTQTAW

[12] = target: T8, Alpha-2C adrenergic receptor (Homo sapiens, UniProt P18825); assay: Binding affinity to alpha2C adrenergic receptor (unknown origin) by radioligand displacement assay
T8 sequence (P18825 whole entry): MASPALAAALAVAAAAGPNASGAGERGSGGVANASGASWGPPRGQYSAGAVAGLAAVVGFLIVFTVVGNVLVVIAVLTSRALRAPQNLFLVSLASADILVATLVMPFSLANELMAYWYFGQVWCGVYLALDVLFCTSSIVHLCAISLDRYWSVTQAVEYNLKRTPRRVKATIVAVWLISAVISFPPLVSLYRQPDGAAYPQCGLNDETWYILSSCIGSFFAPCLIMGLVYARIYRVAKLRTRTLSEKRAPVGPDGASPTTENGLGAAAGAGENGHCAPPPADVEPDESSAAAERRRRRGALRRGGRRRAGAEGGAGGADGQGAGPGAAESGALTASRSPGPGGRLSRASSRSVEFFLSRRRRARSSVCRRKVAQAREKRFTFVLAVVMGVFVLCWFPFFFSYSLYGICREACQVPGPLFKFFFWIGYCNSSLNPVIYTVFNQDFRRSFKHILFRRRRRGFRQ

[13] = Binding affinity to Sigma2 opioid receptor (unknown origin) by radioligand displacement assay; parameters: species or system Homo sapiens
[14] = target: 5-hydroxytryptamine receptor 5A (Homo sapiens, UniProt P47898); assay: Binding affinity to 5HT5A receptor (unknown origin) by radioligand displacement assay
[15] = Binding affinity to alpha7 […] receptor (unknown origin) by radioligand displacement assay; parameters: species or system Homo sapiens
[16] = target: 5-hydroxytryptamine receptor 7 (Homo sapiens, UniProt P34969); assay: Binding affinity to 5HT7A receptor (unknown origin) by radioligand displacement assay
[17] = target: T9, Voltage-gated inwardly rectifying potassium channel KCNH2 (Homo sapiens, UniProt Q12809); assay: Binding affinity to hERG by radioligand displacement assay; type: toxicity
[18] = target: T2, Kappa-type opioid receptor; assay: Agonist activity at kappa opioid receptor (unknown origin) expressed in human U2OS cells assessed as beta arrestin2 recruitment at <10 uM incubated for 30 mins by PathHunter assay; type: functional, cell-based; conditions: filed as agonist
[19] = target: T1, Mu-type opioid receptor
Description: Binding affinity to mu opioid receptor (unknown origin) by radioligand displacement assay

[20] = target: T2, Kappa-type opioid receptor; assay: Binding affinity to kappa opioid receptor (unknown origin) by radioligand displacement assay
[21] = target: T2, Kappa-type opioid receptor; assay: Agonist activity at kappa opioid receptor (unknown origin) assessed as beta arrestin2 recruitment at 3 uM by PRESTO-Tango assay; type: functional; conditions: filed as agonist
[22] = target: T9, Voltage-gated inwardly rectifying potassium channel KCNH2; assay: Binding affinity to hERG at 10 uM by radioligand displacement assay; type: toxicity

T1 sequence (P35372 whole entry): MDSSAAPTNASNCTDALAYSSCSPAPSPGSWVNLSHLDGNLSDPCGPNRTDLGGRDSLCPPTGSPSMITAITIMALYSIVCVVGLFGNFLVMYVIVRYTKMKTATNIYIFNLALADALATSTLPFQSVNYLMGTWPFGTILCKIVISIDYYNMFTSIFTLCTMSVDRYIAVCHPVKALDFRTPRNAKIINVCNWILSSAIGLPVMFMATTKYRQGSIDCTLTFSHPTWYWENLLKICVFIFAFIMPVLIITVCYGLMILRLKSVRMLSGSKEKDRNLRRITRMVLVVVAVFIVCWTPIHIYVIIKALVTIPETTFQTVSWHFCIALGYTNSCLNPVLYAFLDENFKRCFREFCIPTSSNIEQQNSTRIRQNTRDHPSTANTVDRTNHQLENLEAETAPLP
T2 sequence (P41145 whole entry): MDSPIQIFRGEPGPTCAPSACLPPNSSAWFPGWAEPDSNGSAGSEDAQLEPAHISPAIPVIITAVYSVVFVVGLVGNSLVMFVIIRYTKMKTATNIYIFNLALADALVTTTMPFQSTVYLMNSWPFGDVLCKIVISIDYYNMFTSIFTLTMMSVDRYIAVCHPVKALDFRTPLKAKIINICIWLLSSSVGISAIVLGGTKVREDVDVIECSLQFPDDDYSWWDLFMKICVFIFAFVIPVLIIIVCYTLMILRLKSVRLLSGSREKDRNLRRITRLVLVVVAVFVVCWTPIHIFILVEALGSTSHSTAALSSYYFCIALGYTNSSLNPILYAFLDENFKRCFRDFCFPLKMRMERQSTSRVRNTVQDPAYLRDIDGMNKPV
T9 sequence (Q12809 whole entry): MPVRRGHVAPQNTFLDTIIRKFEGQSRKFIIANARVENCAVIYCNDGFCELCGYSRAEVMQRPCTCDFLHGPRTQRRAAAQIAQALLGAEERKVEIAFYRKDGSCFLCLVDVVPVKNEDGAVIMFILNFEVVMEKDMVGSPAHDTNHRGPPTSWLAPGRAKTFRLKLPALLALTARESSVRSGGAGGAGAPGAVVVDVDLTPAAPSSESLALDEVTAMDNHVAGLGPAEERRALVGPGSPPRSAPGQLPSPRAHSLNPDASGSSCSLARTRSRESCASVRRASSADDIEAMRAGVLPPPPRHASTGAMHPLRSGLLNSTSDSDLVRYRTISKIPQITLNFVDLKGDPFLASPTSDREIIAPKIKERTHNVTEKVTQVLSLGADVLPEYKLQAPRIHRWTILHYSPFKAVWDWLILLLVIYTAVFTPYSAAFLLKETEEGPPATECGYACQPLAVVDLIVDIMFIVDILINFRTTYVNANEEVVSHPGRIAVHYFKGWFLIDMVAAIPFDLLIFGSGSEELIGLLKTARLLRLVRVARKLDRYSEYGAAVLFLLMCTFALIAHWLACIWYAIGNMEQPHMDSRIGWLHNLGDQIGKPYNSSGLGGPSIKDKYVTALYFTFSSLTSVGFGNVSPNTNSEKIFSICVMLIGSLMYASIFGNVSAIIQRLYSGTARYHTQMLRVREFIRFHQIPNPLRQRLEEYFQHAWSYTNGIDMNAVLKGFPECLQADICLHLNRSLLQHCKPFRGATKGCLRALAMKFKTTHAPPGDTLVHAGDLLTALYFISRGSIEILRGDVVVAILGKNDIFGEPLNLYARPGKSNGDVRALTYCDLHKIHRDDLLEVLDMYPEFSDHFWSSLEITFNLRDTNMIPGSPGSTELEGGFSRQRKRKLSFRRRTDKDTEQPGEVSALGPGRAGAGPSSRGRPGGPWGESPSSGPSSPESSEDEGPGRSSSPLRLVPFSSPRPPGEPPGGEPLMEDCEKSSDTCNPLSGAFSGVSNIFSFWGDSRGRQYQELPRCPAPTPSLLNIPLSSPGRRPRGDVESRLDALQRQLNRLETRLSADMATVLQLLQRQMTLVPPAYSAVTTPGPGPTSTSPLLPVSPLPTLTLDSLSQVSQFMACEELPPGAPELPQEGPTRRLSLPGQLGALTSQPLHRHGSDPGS
Delta-type opioid receptor (Homo sapiens), sequence (P41143 whole entry): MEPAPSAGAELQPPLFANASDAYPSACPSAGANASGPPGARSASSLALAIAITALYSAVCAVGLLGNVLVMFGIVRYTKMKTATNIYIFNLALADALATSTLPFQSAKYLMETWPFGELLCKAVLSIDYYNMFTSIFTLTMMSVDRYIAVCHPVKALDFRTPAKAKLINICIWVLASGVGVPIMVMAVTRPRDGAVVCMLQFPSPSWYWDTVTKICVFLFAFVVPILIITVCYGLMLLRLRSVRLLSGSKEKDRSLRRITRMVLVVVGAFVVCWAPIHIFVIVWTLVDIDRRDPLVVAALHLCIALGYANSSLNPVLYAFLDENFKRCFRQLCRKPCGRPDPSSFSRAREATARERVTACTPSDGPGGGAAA
5-hydroxytryptamine receptor 7, sequence (P34969 whole entry): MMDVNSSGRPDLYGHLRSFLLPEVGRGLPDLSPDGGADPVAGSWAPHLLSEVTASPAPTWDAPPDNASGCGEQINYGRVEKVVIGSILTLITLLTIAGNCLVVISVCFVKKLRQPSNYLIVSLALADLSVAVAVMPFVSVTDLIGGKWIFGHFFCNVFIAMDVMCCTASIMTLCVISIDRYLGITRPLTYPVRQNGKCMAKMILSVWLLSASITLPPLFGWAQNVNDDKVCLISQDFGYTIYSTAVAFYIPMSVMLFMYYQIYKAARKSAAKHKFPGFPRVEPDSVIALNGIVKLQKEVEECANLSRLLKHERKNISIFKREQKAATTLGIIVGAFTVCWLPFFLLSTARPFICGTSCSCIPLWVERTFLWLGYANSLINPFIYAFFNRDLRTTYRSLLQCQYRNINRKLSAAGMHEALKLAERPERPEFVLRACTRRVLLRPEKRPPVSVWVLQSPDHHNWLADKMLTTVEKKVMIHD
5-hydroxytryptamine receptor 5A, sequence (P47898 whole entry): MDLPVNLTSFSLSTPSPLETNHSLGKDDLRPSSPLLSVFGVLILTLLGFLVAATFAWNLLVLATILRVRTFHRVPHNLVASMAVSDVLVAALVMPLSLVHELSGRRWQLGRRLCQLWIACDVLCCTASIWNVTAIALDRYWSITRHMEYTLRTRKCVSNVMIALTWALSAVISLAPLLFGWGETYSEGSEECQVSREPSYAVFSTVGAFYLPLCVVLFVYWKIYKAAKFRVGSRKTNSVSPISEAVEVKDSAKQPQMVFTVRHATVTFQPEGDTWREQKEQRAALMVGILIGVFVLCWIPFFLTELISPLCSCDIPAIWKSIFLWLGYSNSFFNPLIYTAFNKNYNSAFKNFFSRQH

C/C=C1/CN2CC[C@]34C(=C(C(=O)OC)[C@H]1C[C@H]23)Nc1ccc([N+](=O)[O-])cc14
EC50 [1]: 4000 nM
Emax [2]: 96%
Emax [3]: < 10%
Activity [4]: inactive
EC50 [5]: 160 nM
Ratio EC50 [6]: 25

C/C=C1/CN2CC[C@]34C(=C(C(=O)OC)[C@H]1C[C@H]23)Nc1ccc(Br)cc14
Ki [7]: 1000 nM
Ki [8]: 210 nM
Ki [9]: 2880 nM
Ki [10]: > 10000 nM
Ki [11]: 1250 nM
Ki [12]: 2910 nM
Ki [13]: 2620 nM
Ki [14]: 721 nM
Ki [15]: 7000 nM
Ki [16]: 1520 nM
Ki [17]: 1340 nM

C/C=C1/CN2CC[C@]34C(=C(C(=O)OC)[C@H]1C[C@H]23)Nc1ccc(-c2ccoc2)cc14
Emax [2]: 102%
Emax ([3]; filed as agonist): 99%
Activity [18]: Active; Less Efficacious Than U50488
Activity [4]: inactive

C/C=C1/CN2CC[C@]34C(=C(C(=O)OC)[C@H]1C[C@H]23)Nc1ccccc14 [AKUAMMICINE]
Ki [8]: 5490 nM
Emax [2]: 91%
Ki [19]: 3730 nM
Ki [11]: 1210 nM
Ki [12]: 4790 nM
Ki [14]: 2930 nM
Ki [20]: 166 nM
Activity [21]: Active
Ki [16]: 1410 nM
EC50 [5]: 1200 nM
Activity [22]: < 50%

— ChEMBL document CHEMBL6074668 (J Med Chem, 2024)
